Laboratory results: patent US20260262643A1, “HERBICIDAL BENZOXAZINES” (FMC CORPORATION, priority 2022, published 2026)

Key:
[1] = test system: blackgrass; assay: Test A postemergence; format: in vivo, Alopecurus myosuroides; details: postemergence, 10 days; for Blackgrass plant response rating: 125 g ai/ha, 0 to 100 scale, 0 no effect, 100 complete control; for Plant response rating, Blackgrass: 500 g ai/ha, visual injury, 0 to 100 scale (0 no effect, 100 complete control)
Method in brief: (§1)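 Loam/sand soil; pre-em directed soil spray at planting, post-em spray at 1–2 leaf (2–10 cm). Compound in non-phytotoxic solvent + surfactant. Greenhouse 10 d; visual injury vs untreated, 0 = no effect, 100 = complete control.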

[2] = test system: foxtail, giant; assay: Test A preemergence; format: in vivo, Setaria faberi; details: 0 to 100 scale
Method in brief: as §1

[3] = test system: wheat; assay: Test A preemergence; format: in vivo, Triticum aestivum; details: 0 to 100 scale
Method in brief: as §1

[4] = test system: oat, wild; assay: Test A preemergence; format: in vivo, Avena fatua; details: 0 to 100 scale
Method in brief: as §1

[5] = test system: ducksalad; assay: Test B flooded paddy test; format: in vivo, Heteranthera limosa; details: 250 g ai/ha, Flood, 13 days, 0 to 100 scale (0 no effect, 100 complete control)
Method in brief: (§2)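 Visual scores from 0 (no effect) to 100 (complete kill) were assigned 13 days after treatment by comparison with controls. Seedlings had been treated at two leaves by adding compound to floodwater standing 3 cm deep, kept at that level in the greenhouse.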

[6] = test system: kochia; assay: Test A postemergence; format: in vivo, Bassia scoparia; details: postemergence, 10 days; for Kochia plant response rating: 125 g ai/ha, 0 to 100 scale, 0 no effect, 100 complete control; for Plant response rating, Kochia: 500 g ai/ha, visual injury, 0 to 100 scale (0 no effect, 100 complete control)
Method in brief: as §1

[7] = test system: kochia; assay: Test A preemergence; format: in vivo, Bassia scoparia; details: 0 to 100 scale
Method in brief: as §1

[8] = test system: horseweed; assay: Test A postemergence; format: in vivo, Erigeron canadensis; details: postemergence, 10 days; for Horseweed plant response rating: 125 g ai/ha, 0 to 100 scale, 0 no effect, 100 complete control; for Plant response rating, Horseweed: 500 g ai/ha, visual injury, 0 to 100 scale (0 no effect, 100 complete control)
Method in brief: as §1

[9] = test system: rice; assay: Test B flooded paddy test; format: in vivo, Oryza sativa; details: 250 g ai/ha, Flood, 13 days, 0 to 100 scale (0 no effect, 100 complete control)
Method in brief: as §2

[10] = test system: wheat; assay: Test A postemergence; format: in vivo, Triticum aestivum; details: postemergence, 10 days; for Wheat plant response rating: 125 g ai/ha, 0 to 100 scale, 0 no effect, 100 complete control; for Plant response rating, Wheat: 500 g ai/ha, visual injury, 0 to 100 scale (0 no effect, 100 complete control)
Method in brief: as §1

[11] = test system: pigweed, palmer; assay: Test A postemergence; format: in vivo, Amaranthus palmeri; details: postemergence, 10 days; for Pigweed, Palmer plant response rating: 125 g ai/ha, 0 to 100 scale, 0 no effect, 100 complete control; for Plant response rating, Pigweed, Palmer: 500 g ai/ha, visual injury, 0 to 100 scale (0 no effect, 100 complete control)
Method in brief: as §1

[12] = test system: oat, wild; assay: Test A postemergence; format: in vivo, Avena fatua; details: postemergence, 10 days; for Oat, Wild plant response rating: 125 g ai/ha, 0 to 100 scale, 0 no effect, 100 complete control; for Plant response rating, Oat, Wild: 500 g ai/ha, visual injury, 0 to 100 scale (0 no effect, 100 complete control)
Method in brief: as §1

[13] = test system: barnyardgrass; assay: Test A preemergence; format: in vivo, Echinochloa crusgalli; details: visual injury after 10 days, 0 to 100 scale, 0 is no effect, 100 is complete control
Method in brief: as §1

[14] = test system: galium; assay: Test A postemergence; format: in vivo, Galium aparine; details: postemergence, 10 days; for Galium plant response rating: 125 g ai/ha, 0 to 100 scale, 0 no effect, 100 complete control; for Plant response rating, Galium: 500 g ai/ha, visual injury, 0 to 100 scale (0 no effect, 100 complete control)
Method in brief: as §1

[15] = test system: ragweed; assay: Test A preemergence; format: in vivo, Ambrosia artemisiifolia; details: 0 to 100 scale
Method in brief: as §1

[16] = test system: corn; assay: Test A preemergence; format: in vivo, Zea mays; details: 0 to 100 scale
Method in brief: as §1

[17] = test system: ryegrass, Italian; assay: Test A preemergence; format: in vivo, Lolium multiflorum; details: 0 to 100 scale
Method in brief: as §1

[18] = test system: sedge, umbrella; assay: Test B flooded paddy test; format: in vivo, Cyperus difformis; details: 250 g ai/ha, Flood, 13 days, 0 to 100 scale (0 no effect, 100 complete control)
Method in brief: as §2

[19] = test system: blackgrass; assay: Test A preemergence; format: in vivo, Alopecurus myosuroides; details: 0 to 100 scale
Method in brief: as §1

[20] = test system: soybean; assay: Test A preemergence; format: in vivo, Glycine max; details: 0 to 100 scale
Method in brief: as §1

[21] = test system: ryegrass, Italian; assay: Test A postemergence; format: in vivo, Lolium multiflorum; details: postemergence, 10 days; for Ryegrass, Italian plant response rating: 125 g ai/ha, 0 to 100 scale, 0 no effect, 100 complete control; for Plant response rating, Ryegrass, Italian: 500 g ai/ha, visual injury, 0 to 100 scale (0 no effect, 100 complete control)
Method in brief: as §1

[22] = test system: pigweed, palmer; assay: Test A preemergence; format: in vivo, Amaranthus palmeri; details: 0 to 100 scale
Method in brief: as §1

[23] = test system: barnyardgrass; assay: Test B flooded paddy test; format: in vivo, Echinochloa crus-galli; details: 250 g ai/ha, Flood, 13 days, 0 to 100 scale (0 no effect, 100 complete control)
Method in brief: as §2

[24] = test system: barnyardgrass; assay: Test A postemergence; format: in vivo, Echinochloa crusgalli; details: postemergence, 10 days; for Barnyardgrass plant response rating: 125 g ai/ha, 0 to 100 scale, 0 no effect, 100 complete control; for Plant response rating, Barnyardgrass: 500 g ai/ha, visual injury, 0 to 100 scale (0 no effect, 100 complete control)
Method in brief: as §1

[25] = test system: soybean; assay: Test A postemergence; format: in vivo, Glycine max; details: postemergence, 10 days; for Soybean plant response rating: 125 g ai/ha, 0 to 100 scale, 0 no effect, 100 complete control; for Plant response rating, Soybean: 500 g ai/ha, visual injury, 0 to 100 scale (0 no effect, 100 complete control)
Method in brief: as §1

[26] = test system: ragweed; assay: Test A postemergence; format: in vivo, Ambrosia artemisiifolia; details: postemergence, 10 days; for Ragweed plant response rating: 125 g ai/ha, 0 to 100 scale, 0 no effect, 100 complete control; for Plant response rating, Ragweed: 500 g ai/ha, visual injury, 0 to 100 scale (0 no effect, 100 complete control)
Method in brief: as §1

[27] = test system: corn; assay: Test A postemergence; format: in vivo, Zea mays; details: postemergence, 10 days; for Corn plant response rating: 125 g ai/ha, 0 to 100 scale, 0 no effect, 100 complete control; for Plant response rating, Corn: 500 g ai/ha, visual injury, 0 to 100 scale (0 no effect, 100 complete control)
Method in brief: as §1

[28] = test system: foxtail, giant; assay: Test A postemergence; format: in vivo, Setaria faberi; details: postemergence, 10 days; for Foxtail, Giant plant response rating: 125 g ai/ha, 0 to 100 scale, 0 no effect, 100 complete control; for Plant response rating, Foxtail, Giant: 500 g ai/ha, visual injury, 0 to 100 scale (0 no effect, 100 complete control)
Method in brief: as §1

[29] = 125 g ai/ha, visual injury after 10 days, 0 is no effect, 100 is complete control
[30] = 500 g ai/ha, visual injury after 10 days, 0 is no effect, 100 is complete control

CC(C)Cc1ncn(-c2cccc(C(=O)N3C[C@H](C)Oc4c(Cl)cccc43)c2)n1 [Compound 112]
Blackgrass plant response rating [1]: 0 | Plant response rating, Blackgrass [1]: 60 | Plant response rating, Foxtail, Giant [2, 29]: 50 | Plant response rating, Foxtail, Giant [2, 30]: 90 | Plant response rating, Wheat [3, 29]: 20 | Plant response rating, Wheat [3, 30]: 40 | Plant response rating, Oat, Wild [4, 29]: 0 | Plant response rating, Oat, Wild [4, 30]: 20 | Plant response rating, Ducksalad [5]: 0 | Kochia plant response rating [6]: 70 | Plant response rating, Kochia [6]: 90 | Plant response rating, Kochia [7, 29]: 0 | Plant response rating, Kochia [7, 30]: 60 | Horseweed plant response rating [8]: 0 | Plant response rating, Horseweed [8]: 0 | Plant response rating, Rice [9]: 0 | Wheat plant response rating [10]: 10 | Plant response rating, Wheat [10]: 20 | Pigweed, Palmer plant response rating [11]: 50 | Plant response rating, Pigweed, Palmer [11]: 90 | Oat, Wild plant response rating [12]: 10 | Plant response rating, Oat, Wild [12]: 30 | Plant response rating, Barnyardgrass ([13]; 125 g ai/ha): 40 | Plant response rating, Barnyardgrass ([13]; 500 g ai/ha): 100 | Galium plant response rating [14]: 90 | Plant response rating, Galium [14]: 100 | Plant response rating, Ragweed [15, 29]: 0 | Plant response rating, Ragweed [15, 30]: 40 | Plant response rating, Corn [16, 29]: 0 | Plant response rating, Corn [16, 30]: 0 | Plant response rating, Ryegrass, Italian [17, 29]: 40 | Plant response rating, Ryegrass, Italian [17, 30]: 90 | Plant response rating, Sedge, Umbrella [18]: 0 | Plant response rating, Blackgrass [19, 29]: 20 | Plant response rating, Blackgrass [19, 30]: 80 | Plant response rating, Soybean [20, 29]: 0 | Plant response rating, Soybean [20, 30]: 50 | Ryegrass, Italian plant response rating [21]: 10 | Plant response rating, Ryegrass, Italian [21]: 60 | Plant response rating, Pigweed, Palmer [22, 29]: 50 | Plant response rating, Pigweed, Palmer [22, 30]: 100 | Plant response rating, Barnyardgrass [23]: 0 | Barnyardgrass plant response rating [24]: 10 | Plant response rating, Barnyardgrass [24]: 40 | Soybean plant response rating [25]: 90 | Plant response rating, Soybean [25]: 100 | Ragweed plant response rating [26]: 0 | Plant response rating, Ragweed [26]: 0 | Corn plant response rating [27]: 20 | Plant response rating, Corn [27]: 40 | Foxtail, Giant plant response rating [28]: 20 | Plant response rating, Foxtail, Giant [28]: 70

COc1cc(C(=O)N2C[C@H](C)Oc3c(Cl)cccc32)cc(-n2cncn2)c1 [Compound 138]
Blackgrass plant response rating [1]: 80 | Plant response rating, Blackgrass [1]: 90 | Plant response rating, Foxtail, Giant ([2]; 125 g ai/ha): 100 | Plant response rating, Foxtail, Giant [2, 30]: 100 | Plant response rating, Wheat ([3]; 125 g ai/ha): 40 | Plant response rating, Wheat [3, 30]: 90 | Plant response rating, Oat, Wild ([4]; 125 g ai/ha): 40 | Plant response rating, Oat, Wild [4, 30]: 90 | Plant response rating, Ducksalad [5]: 70 | Kochia plant response rating [6]: 80 | Plant response rating, Kochia [6]: 80 | Plant response rating, Kochia ([7]; 125 g ai/ha): 0 | Plant response rating, Kochia [7, 30]: 50 | Horseweed plant response rating [8]: 0 | Plant response rating, Horseweed [8]: 0 | Plant response rating, Rice [9]: 35 | Wheat plant response rating [10]: 40 | Plant response rating, Wheat [10]: 80 | Pigweed, Palmer plant response rating [11]: 30 | Plant response rating, Pigweed, Palmer [11]: 90 | Oat, Wild plant response rating [12]: 50 | Plant response rating, Oat, Wild [12]: 80 | Plant response rating, Barnyardgrass ([13]; 125 g ai/ha): 90 | Plant response rating, Barnyardgrass ([13]; 500 g ai/ha): 100 | Galium plant response rating [14]: 80 | Plant response rating, Galium [14]: 100 | Plant response rating, Ragweed ([15]; 125 g ai/ha): 0 | Plant response rating, Ragweed [15, 30]: 0 | Plant response rating, Corn ([16]; 125 g ai/ha): 10 | Plant response rating, Corn [16, 30]: 10 | Plant response rating, Ryegrass, Italian ([17]; 125 g ai/ha): 80 | Plant response rating, Ryegrass, Italian [17, 30]: 100 | Plant response rating, Sedge, Umbrella [18]: 75 | Plant response rating, Blackgrass ([19]; 125 g ai/ha): 80 | Plant response rating, Blackgrass [19, 30]: 90 | Plant response rating, Soybean ([20]; 125 g ai/ha): 70 | Plant response rating, Soybean [20, 30]: 100 | Ryegrass, Italian plant response rating [21]: 70 | Plant response rating, Ryegrass, Italian [21]: 100 | Plant response rating, Pigweed, Palmer ([22]; 125 g ai/ha): 90 | Plant response rating, Pigweed, Palmer [22, 30]: 100 | Plant response rating, Barnyardgrass [23]: 35 | Barnyardgrass plant response rating [24]: 60 | Plant response rating, Barnyardgrass [24]: 80 | Soybean plant response rating [25]: 100 | Plant response rating, Soybean [25]: 100 | Ragweed plant response rating [26]: 0 | Plant response rating, Ragweed [26]: 40 | Corn plant response rating [27]: 80 | Plant response rating, Corn [27]: 90 | Foxtail, Giant plant response rating [28]: 90 | Plant response rating, Foxtail, Giant [28]: 90
